One experiment has as its system MAS98.12 xenograft. Particulars: FIG. 1; data from an earlier study in the same animal model [13]; cited from earlier work.
Experiment [1] has as its system PGE2. Kind of experiment: Plasma PGE2 EIA, prophylactic CIA study. It is filed as in vivo, male DBA/1 mice. The following applies: prophylactic CIA study; Compound A 7.5 mg/kg, MTX 0.3 mg/kg; vehicle 223.4±107; mean ± SD. The protocol: PGE2 is recognized as an important contributor to the joint inflammation in rheumatoid arthritis,^60 and we investigated if plasma PGE2 levels were changed in response to treatment. […] There were no significant differences between the treatment groups (p>0.05).
(§1) PGE2 EIA analysis of blood plasma from the prophylactic and therapeutic CIA studies was performed according to kit protocol. Plasma samples were diluted 1:1000-1:6000 in EIA buffer and allowed to hybridize over-night (18 hrs, 4° C.). The plate was read using a Multiscan plate reader (Ascent Labsystems) (OD550 nm). The corresponding Ascent software for Multiscan, Version 2.4.1 was used to obtain the data. PGE2 levels for all treatments are shown relative to the DMSO-treated vehicle arthritic mice (n=10-11 mice in each category±SD).
(§2) For the prophylactic and the therapeutic studies, CIA was induced in male DBA/1 mice (except naïve mice) by immunization with 0.1 mL emulsion containing an equal volume of bovine type II collagen solution (2 mg/mL) and Freuds Complete Adjuvant at the tail base. The first injection was given on Day 0 and the second injection as booster was given on Day 21 (41-43). COMPOUND A, vehicle (DMSO) and MTX (0.3 mg/kg) were administered daily, Enbrel (25 mg/kg) was administrated twice a week. For the prophylactic study, treatment started one hour before the second collagen injection and continued for 21 days except for the histology groups that were sacrificed at Day 13 ([…]). For the therapeutic study, treatment started at Day 28 and continued for 14 days.

In experiment [2] the test system is collagen-induced arthritis (CIA) mouse model. Kind of experiment: Prophylactic collagen-induced arthritis (CIA) study. It is filed as in vivo, male DBA/1 mice. As for the experimental part: The prophylactic effect of Compound A on CIA model in male DBA/1 mice^57 following intraperitoneal (ip) administration, treatment starting 1 hour prior to the last immunization was studied. A study comparing naïve mice (healthy, non-CIA, non-treated), vehicle-treated mice (CIA with DMSO, ip) and CIA mice treated daily with Compound A (7.5 mg/kg, ip) or MTX (0.3 mg/kg, ip) was performed. CIA developed rapidly in mice immunized with CII. In the prophylactic study, a 100% incidence of CIA was observed by day 29 in CII-immunized mice, with maximum AI of 8.55 observed at 41 days post immunization. The AI and incidence of all groups increased in a time-dependent mode from day 25 to day 41.
Separate prophylactic and therapeutic efficacy studies of COMPOUND A were performed. Methotrexate (MTX) (Jiangsu Hengrui Medicine Co, #11041411), Enbrel (Boehringer Ingelheim Pharma KG, # F39487), and vehicle (DMSO 100%, Sigma Aldrich # D2650) were administered to all groups via intraperitoneal injection once daily at a dose volume of 2 mL/kg. Observations for morbidity, mortality, injury, and the availability of food and water were conducted twice daily for all animals. Clinical observations were conducted daily during the study. Body weights were measured and recorded prior to randomization and then once daily during the study. Food consumption was measured and recorded daily. Biopsies for mid-term histology analysis were obtained on Day 13 in the prophylactic study. Necropsy examinations were performed at study termination; plasma samples were collected, organ weights were recorded
as §2
CIA Assessment and Treatment. CIA was assessed in mice by two blinded observers to measure paw swelling with a capacity measurement method on Day 0, Day 20, Day 22, Day 25, Day 27, Day 29, Day 32, Day 34, Day 36, Day 39 and Day 41 after the first injection. The occurrence of arthritis was observed by scoring all paws for severity of erythema and swelling, using a clinical score ranging from 0 (no swelling) to 4 (severe swelling and erythema). The physical condition of the animals was observed daily. Scores and overall evaluation of the histology group arms were performed in the same way as the main groups. However, the values measured were not included in the mean value calculations of the main groups. The YLS-7B Foot Volume Measuring Instrument (Huaibei China Bio Equipment) was used to measure the foot volume of mice. The occurrence of arthritis was observed by scoring all paws for severity of erythema and swelling, using a clinical score ranging from 0 (no swelling) to 4 (severe swelling and erythema), i.e. yielding maximum arthritic index (AI) score 16 (46).
Measurement of the histopathology and clinical observations. At the end of the studies, one hind foot of each mouse was collected for histopathology. The foot including the ankle was fixed in 10% neutral formalin. The ankle joints were decalcified, dehydrated, embedded in paraffin, sectioned and stained with routine hematoxylin-eosin. The sections were studied using light microscopy (10×10 and 20×10 magnifications). Arthritis damage (histological damage score) was evaluated and scored by an investigator blinded for the treatment regimen. […]

Experiment [3] has as its system rat streptozocin-induced model of human chronic renal disease. In words: Rat streptozocin-induced model of human chronic renal disease, urine protein. Particulars: AVX235 10 mg/kg ip; losartan 30 mg/kg oral gavage daily; 2 weeks. It is filed as in vivo, Sprague Dawley rats. The protocol:
The therapeutic effect of AVX235 was tested in the rat streptozocin-induced model of human chronic renal disease and compared against losartan (positive control).
Sprague Dawley rats (Harlan laboratories, USA) of an average weight of 130-150 grams were divided in groups of 8 animals per group and were treated according to table 7:
AVX235 was injected intraperitoneally, once daily for the first 4 days and then every two days. Losartan was administered daily, by oral gavage. At 2 weeks post experiment initiation, urine was collected over a period of 24 h and total protein in mg was measured.

The subject of experiment [4] is collagen-induced arthritis (CIA) mouse model. Kind of experiment: Therapeutic collagen-induced arthritis (CIA) study. It is filed as in vivo, male DBA/1 mice. The following applies: Days 36 to 41; Compound A 30 mg/kg ip daily; Enbrel 25 mg/kg twice a week. The source says:
The therapeutic effect of Compound A on CIA model in male DBA/1 mice following ip administration, treatment starting 7 days after the last immunization was explored. CIA developed rapidly in mice immunized with CII, with maximum AI of 10.2 observed at 39 days post immunization. The AI and incidence of vehicle- and Compound A treated groups increased in a time-dependent mode from Days 29 to 41. […] Compound A and Enbrel performed equally well; there were no significant difference between these treatments groups.
Separate prophylactic and therapeutic efficacy studies of COMPOUND A were performed. […] Body weights were measured and recorded prior to randomization and then once daily during the study. Food consumption was measured and recorded daily. […] Necropsy examinations were performed at study termination; plasma samples were collected, organ weights were recorded […]
CIA Assessment and Treatment. CIA was assessed in mice by two blinded observers to measure paw swelling with a capacity measurement method on Day 0, Day 20, Day 22, Day 25, Day 27, Day 29, Day 32, Day 34, Day 36, Day 39 and Day 41 after the first injection. […] However, the values measured were not included in the mean value calculations of the main groups. […]

Experiment [5] deals with PGE2. Kind of experiment: Plasma PGE2 EIA, therapeutic CIA study. It is filed as in vivo, male DBA/1 mice. The following applies: therapeutic CIA study; Compound A 30 mg/kg, Enbrel 25 mg/kg; vehicle 231.1±110; mean ± SD. As for the experimental part:
There were no significant differences between the treatment groups (p>0.05).
as §1, §2

Where [6] appears, read: hind paw, Compound A 7.5 mg/kg, MTX 0.3 mg/kg.

Take `Cn1c(=O)n(-c2ccc(C(C)(C)C#N)cc2)c2c3cc(-c4cnc5ccccc5c4)ccc3ncc21` [BEZ235]: in the experiment with MAS98.12 xenograft, the “tumor volume (in words)” value is “tumor volumes are reduced”.

In the case of `CN(Cc1cnc2nc(N)nc(N)c2n1)c1ccc(C(=O)N[C@@H](CCC(=O)O)C(=O)O)cc1` [MTX, Methotrexate, reference compound], the “plasma PGE2 level” value with PGE2 [1] came to 107.3 ± 62 ng/mL. For the same compound, the “arthritic index (AI) in comparison to the CIA control group (in words)” value in experiment [2] (Days 32 to 41, Compound A 7.5 mg/kg ip daily, MTX 0.3 mg/kg ip daily) was “significantly reduced”. Moreover, in experiment [2] (setting [6]), the “articular cavity and peripheral tissue inflammatory cell infiltration, histopathology vs vehicle (in words)” value was “did not reduce”; the “capillary and synovial hyperplasia, histopathology vs vehicle (in words)” value is listed as “did not reduce”; the “cartilage damage, histopathology vs vehicle (in words)” value is “did not reduce”.

For the compound `CCCCc1nc(Cl)c(CO)n1Cc1ccc(-c2ccccc2-c2nn[nH]n2)cc1` [losartan], the “therapeutic effect on STZ-induced urine protein (in words)” value in experiment [3] is given as “protected rats from the STZ effect”.

With Enbrel, the “arthritic index (AI) in comparison to the CIA control group (in words)” value in experiment [4] is listed as “significantly decreased”. The “plasma PGE2 level” value in the experiment with PGE2 [5] came out at 187.5 ± 74 ng/mL.

Values taken from patent publication US11034666B2, “Anti-inflammatory and antitumor 2-oxothiazoles and 2-oxothiophenes compounds” (Avexxin AS, priority 2013, dated 2021).
